Test results as given in PubChem BioAssay (NCI).
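The concentration for 50% growth inhibition is given as GI50. TGI denotes the concentration required for complete inhibition of growth.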

Experiments:
Assay in all cases: NCI anticancer screen, dose series, 384-well format
DU-145 prostate = test system: DU-145 prostate
CAKI-1 renal = test system: CAKI-1 renal
RPMI-8226 leukemia = test system: RPMI-8226 leukemia
COLO 205 colon = test system: COLO 205 colon
MCF7 breast = test system: MCF7 breast
SF-539 CNS = test system: SF-539 CNS
SK-OV-3 ovarian = test system: SK-OV-3 ovarian
NCI-H322M lung = test system: NCI-H322M lung
CCRF-CEM leukemia = test system: CCRF-CEM leukemia
MOLT-4 leukemia = test system: MOLT-4 leukemia
PC-3 prostate = test system: PC-3 prostate
SN12C renal = test system: SN12C renal
K-562 leukemia = test system: K-562 leukemia
RXF 393 renal = test system: RXF 393 renal
SW-620 colon = test system: SW-620 colon
M14 melanoma = test system: M14 melanoma
786-0 renal = test system: 786-0 renal
UO-31 renal = test system: UO-31 renal
NCI-H226 lung = test system: NCI-H226 lung
NCI-H23 lung = test system: NCI-H23 lung
HS 578T breast = test system: HS 578T breast
OVCAR-3 ovarian = test system: OVCAR-3 ovarian
MDA-MB-435 melanoma = test system: MDA-MB-435 melanoma
LOX IMVI melanoma = test system: LOX IMVI melanoma
UACC-257 melanoma = test system: UACC-257 melanoma
A498 renal = test system: A498 renal
MDA-MB-231 breast = test system: MDA-MB-231 breast
BT-549 breast = test system: BT-549 breast
NCI/ADR-RES ovarian = test system: NCI/ADR-RES ovarian
SK-MEL-28 melanoma = test system: SK-MEL-28 melanoma
NCI-H460 NSCLC = test system: NCI-H460 NSCLC
T-47D breast = test system: T-47D breast
HCT-15 colon = test system: HCT-15 colon
OVCAR-5 ovarian = test system: OVCAR-5 ovarian
TK-10 renal = test system: TK-10 renal
SF-268 CNS = test system: SF-268 CNS
MDA-MB-468 breast = test system: MDA-MB-468 breast
OVCAR-8 ovarian = test system: OVCAR-8 ovarian
NCI-H522 lung = test system: NCI-H522 lung
EKVX NSCLC = test system: EKVX NSCLC
SF-295 CNS = test system: SF-295 CNS
MALME-3M melanoma = test system: MALME-3M melanoma
SNB-75 CNS = test system: SNB-75 CNS
ACHN renal = test system: ACHN renal
OVCAR-4 ovarian = test system: OVCAR-4 ovarian
HL-60(TB) leukemia = test system: HL-60(TB) leukemia
HOP-92 NSCLC = test system: HOP-92 NSCLC
UACC-62 melanoma = test system: UACC-62 melanoma
SK-MEL-5 melanoma = test system: SK-MEL-5 melanoma
U251 glioblastoma = test system: U251 glioblastoma
HOP-62 NSCLC = test system: HOP-62 NSCLC
HCC-2998 colon = test system: HCC-2998 colon
IGROV1 ovarian = test system: IGROV1 ovarian
HT29 colon = test system: HT29 colon
A549 NSCLC = test system: A549 NSCLC
SNB-19 CNS = test system: SNB-19 CNS
HCT-116 colon = test system: HCT-116 colon
SK-MEL-2 melanoma = test system: SK-MEL-2 melanoma
KM12 colon = test system: KM12 colon

Cc1c(NC(=O)c2cc(C(N)=O)nc3cc(F)ccc23)c(C(F)(F)F)nn1Cc1ccc(C#N)cc1
GI50 (DU-145 prostate): 75.2 nM | TGI (DU-145 prostate): 2430 nM | GI50 (CAKI-1 renal): 8.33 µM | TGI (CAKI-1 renal): 37.4 µM | TGI (RPMI-8226 leukemia): 163 nM | GI50 (COLO 205 colon): 102 nM | TGI (COLO 205 colon): 1330 nM | GI50 (MCF7 breast): 198 nM | TGI (MCF7 breast): 1220 nM | GI50 (SF-539 CNS): 5.05 µM | TGI (SF-539 CNS): 27.2 µM | GI50 (SK-OV-3 ovarian): 132 nM | TGI (SK-OV-3 ovarian): 313 nM | GI50 (NCI-H322M lung): 1710 nM | TGI (NCI-H322M lung): 12.9 µM | GI50 (CCRF-CEM leukemia): 33.7 nM | TGI (CCRF-CEM leukemia): 10.3 µM | GI50 (MOLT-4 leukemia): 110 nM | TGI (MOLT-4 leukemia): 2020 nM | GI50 (PC-3 prostate): 53.2 nM | TGI (PC-3 prostate): 276 nM | GI50 (SN12C renal): 237 nM | TGI (SN12C renal): 12.1 µM | GI50 (K-562 leukemia): 5.92 µM | TGI (K-562 leukemia): 22.3 µM | GI50 (RXF 393 renal): 693 nM | TGI (RXF 393 renal): 5.32 µM | GI50 (SW-620 colon): 4.76 µM | TGI (SW-620 colon): 33.9 µM | GI50 (M14 melanoma): 11.1 µM | TGI (M14 melanoma): 24.9 µM | GI50 ([…]-0 renal): 319 nM | TGI (786-0 renal): 12.3 µM | GI50 (UO-31 renal): 208 nM | TGI (UO-31 renal): 9.83 µM | GI50 (NCI-H226 lung): 84.2 nM | TGI (NCI-H226 lung): 8.1 µM | GI50 (NCI-H23 lung): 2930 nM | TGI (NCI-H23 lung): 16.5 µM | GI50 (HS 578T breast): 22 nM | TGI (HS 578T breast): 123 nM | GI50 (OVCAR-3 ovarian): 50.9 nM | TGI (OVCAR-3 ovarian): 1190 nM | GI50 (MDA-MB-435 melanoma): 17.1 µM | TGI (MDA-MB-435 melanoma): > 100 µM | GI50 (LOX IMVI melanoma): 1670 nM | TGI (LOX IMVI melanoma): 12.8 µM | GI50 (UACC-257 melanoma): 33.4 µM | TGI (UACC-257 melanoma): > 100 µM | GI50 (A498 renal): 742 nM | TGI (A498 renal): 15.4 µM | GI50 (MDA-MB-231 breast): 5.69 µM | TGI (MDA-MB-231 breast): 41.6 µM | GI50 (BT-549 breast): 605 nM | TGI (BT-549 breast): 12.1 µM | GI50 (NCI/ADR-RES ovarian): 1350 nM | TGI (NCI/ADR-RES ovarian): 2870 nM | GI50 (SK-MEL-28 melanoma): 18.3 µM | TGI (SK-MEL-28 melanoma): > 100 µM | GI50 (NCI-H460 NSCLC): 2870 nM | TGI (NCI-H460 NSCLC): 16.3 µM | GI50 (T-47D breast): 151 nM | TGI (T-47D breast): 11.5 µM | GI50 (HCT-15 colon): 14.1 µM | TGI (HCT-15 colon): > 100 µM | GI50 (OVCAR-5 ovarian): 2810 nM | TGI (OVCAR-5 ovarian): 9.74 µM | GI50 (TK-10 renal): 1370 nM | TGI (TK-10 renal): 5.06 µM | GI50 (SF-268 CNS): 6.04 µM | TGI (SF-268 CNS): 28.2 µM | GI50 (MDA-MB-468 breast): 2660 nM | TGI (MDA-MB-468 breast): 13.4 µM | GI50 (OVCAR-8 ovarian): 1620 nM | TGI (OVCAR-8 ovarian): 5.83 µM | GI50 (NCI-H522 lung): 4.54 µM | TGI (NCI-H522 lung): 27.8 µM | GI50 (EKVX NSCLC): 16.1 µM | TGI (EKVX NSCLC): 66.3 µM | GI50 (SF-295 CNS): 1070 nM | TGI (SF-295 CNS): 5.5 µM | GI50 (MALME-3M melanoma): 2940 nM | TGI (MALME-3M melanoma): 16.4 µM | GI50 (SNB-75 CNS): 12.2 µM | TGI (SNB-75 CNS): 27 µM | GI50 (ACHN renal): 2540 nM | TGI (ACHN renal): 27.1 µM | GI50 (OVCAR-4 ovarian): 80.3 nM | TGI (OVCAR-4 ovarian): 1700 nM | GI50 (HL-60(TB) leukemia): 1060 nM | TGI (HL-60(TB) leukemia): 2380 nM | GI50 (HOP-92 NSCLC): 633 nM | TGI (HOP-92 NSCLC): 7.03 µM | GI50 (UACC-62 melanoma): 2780 nM | TGI (UACC-62 melanoma): 15.4 µM | GI50 (SK-MEL-5 melanoma): 12.3 µM | TGI (SK-MEL-5 melanoma): 54.8 µM | GI50 (U251 glioblastoma): 974 nM | TGI (U251 glioblastoma): 12.9 µM | GI50 (HOP-62 NSCLC): 3.3 µM | TGI (HOP-62 NSCLC): 16.5 µM | GI50 (HCC-2998 colon): 95.6 nM | TGI (HCC-2998 colon): 1690 nM | GI50 (IGROV1 ovarian): 1690 nM | TGI (IGROV1 ovarian): 8.2 µM | GI50 (HT29 colon): 134 nM | TGI (HT29 colon): 1310 nM | GI50 (A549 NSCLC): 2000 nM | TGI (A549 NSCLC): 15.6 µM | GI50 (SNB-19 CNS): 1810 nM | TGI (SNB-19 CNS): 12.3 µM | GI50 (HCT-116 colon): 1970 nM | TGI (HCT-116 colon): 12.2 µM | GI50 (SK-MEL-2 melanoma): 17.4 µM | TGI (SK-MEL-2 melanoma): 35.5 µM | GI50 (KM12 colon): 142 nM | TGI (KM12 colon): 1900 nM
